# Measured values: US9790252B2, “2-fluorinated riboses and arabinoses and methods of use and synthesis” (CORNELL UNIVERSITY, priority 2009, dated 2017)
# Experiments:
# [1] = test system: HEK293 and Neuro2A cells; assay: Immucillin-H effects on β-ara-Cl-NR toxicity (MTT); format: cell-based; details: 10 μM ImmH with 5-100 μM β-ara-Cl-NR, 12 hours
# Experimental: We speculated that like NR, the chloro derivatives might degrade in cells by action of an enzyme that converts it to ribose-1-phosphate. This enzyme is called purine nucleoside phosphorylase (PNP). Immucillin-H (gift of Schramm lab) is a potent inhibitor of PNP. […] Assay: • 1. HEK293 and Neuro2A cells were seeded in 96-well plate at a density of 25,000 cells/well the day before the experiment starts; • 2. After the cells reach 50˜60% confluency, media was taken out, and 100 μL of fresh media was added to each well; • 3. β-ara-Cl-NR (black) and ImmH (bold) were plated according to the following Table 12: • 4. After 12 hours' incubation at 37° C., the media was taken out, 100 μL of fresh media was added to each well along with 20 μL of 5 mg/mL of MTT solution (in PBS); • 5. After 2 hours' incubation at 37° C., media was taken out and 100 μL of DMSO was added to each well, the plate was mixed on shaker for 5 mins; • 6. Absorbance was measured at 570 nm.
# [2] = test system: Neuro2A cells; assay: Toxicity to Neuro2A cells (MTT); format: cell-based
# Experimental: 6. Neuro2A cells were seeded in 96-well plate at a density of 25,000 cells/well the day before the experiment starts;
# 7. After the cells reach 50˜60% confluency, media was taken out, and 100 μL of fresh media was added to each well;
# 8. […]
# 9. After 12 hours' incubation at 37° C., the media was taken out, 100 μL of fresh media was added to each well along with 20 μL of 5 mg/mL of MTT solution (in PBS);
# 10. After 1.5 hours' incubation at 37° C., media was taken out and 100 μL of DMSO was added to each well, the plate was mixed on shaker for 5 mins;
# (§1) Absorbance was measured at 570 nm.
# Assay for Determining Toxicity to HEK293 and Neuro2A Cells • 1. HEK293 and Neuro2A cells were seeded in 96-well plate at a density of 25,000 cells/well the day before the experiment starts; • 2. After the cells reach 50˜60% confluency, media was taken out, and 100 μL of fresh media was added to each well; • 3. […] After 12 hours' incubation at 37° C., the media was taken out, 100 μL of fresh media was added to each well along with 20 μL of 5 mg/mL of MTT solution (in PBS); • 5. After 2 hours' incubation at 37° C., media was taken out and 100 μL of DMSO was added to each well, the plate was mixed on shaker for 5 mins; • 6. Absorbance was measured at 570 nm.
# [3] = test system: HEK293 cells; assay: Toxicity to HEK293 cells (MTT); format: cell-based
# Experimental: 1. HEK293 cells were seeded in 96-well plate at a density of 25,000 cells/well the day before the experiment starts;
# 2. After the cells reach 50˜60% confluency, media was taken out, and 100 μL of fresh media was added to each well;
# 3. F-derivatives were plated at 100 and 500 μM (in duplicates) concentrations;
# 4. After 12 hours' incubation at 37° C., the media was taken out, 100 μL of fresh media was added to each well along with 20 μL of 5 mg/mL of MTT solution (in PBS);
# 5. After 1.5 hours' incubation at 37° C., media was taken out and 100 μL of DMSO was added to each well, the plate was mixed on shaker for 5 mins;
# as §1
# Assay for Determining Toxicity to HEK293 and Neuro2A Cells • 1. HEK293 and Neuro2A cells were seeded in 96-well plate at a density of 25,000 cells/well the day before the experiment starts; • 2. After the cells reach 50˜60% confluency, media was taken out, and 100 μL of fresh media was added to each well; • 3. Cl-derivatives were plated at 100 and 500 μM (in duplicates) concentrations; • 4. After 12 hours' incubation at 37° C., the media was taken out, 100 μL of fresh media was added to each well along with 20 μL of 5 mg/mL of MTT solution (in PBS); • 5. After 2 hours' incubation at 37° C., media was taken out and 100 μL of DMSO was added to each well, the plate was mixed on shaker for 5 mins; • 6. Absorbance was measured at 570 nm.
# [4] = target: T1, SirT1 (Homo sapiens, UniProt Q96EB6); assay: SirT1 activity assay (HPLC of 2′- and 3′-AADPR); format: biochemical; details: 200 μM NAD+, 100 μM JB12 peptide, pH 7.5, 30 mins at 37° C.
# T1 sequence (Q96EB6 1-747): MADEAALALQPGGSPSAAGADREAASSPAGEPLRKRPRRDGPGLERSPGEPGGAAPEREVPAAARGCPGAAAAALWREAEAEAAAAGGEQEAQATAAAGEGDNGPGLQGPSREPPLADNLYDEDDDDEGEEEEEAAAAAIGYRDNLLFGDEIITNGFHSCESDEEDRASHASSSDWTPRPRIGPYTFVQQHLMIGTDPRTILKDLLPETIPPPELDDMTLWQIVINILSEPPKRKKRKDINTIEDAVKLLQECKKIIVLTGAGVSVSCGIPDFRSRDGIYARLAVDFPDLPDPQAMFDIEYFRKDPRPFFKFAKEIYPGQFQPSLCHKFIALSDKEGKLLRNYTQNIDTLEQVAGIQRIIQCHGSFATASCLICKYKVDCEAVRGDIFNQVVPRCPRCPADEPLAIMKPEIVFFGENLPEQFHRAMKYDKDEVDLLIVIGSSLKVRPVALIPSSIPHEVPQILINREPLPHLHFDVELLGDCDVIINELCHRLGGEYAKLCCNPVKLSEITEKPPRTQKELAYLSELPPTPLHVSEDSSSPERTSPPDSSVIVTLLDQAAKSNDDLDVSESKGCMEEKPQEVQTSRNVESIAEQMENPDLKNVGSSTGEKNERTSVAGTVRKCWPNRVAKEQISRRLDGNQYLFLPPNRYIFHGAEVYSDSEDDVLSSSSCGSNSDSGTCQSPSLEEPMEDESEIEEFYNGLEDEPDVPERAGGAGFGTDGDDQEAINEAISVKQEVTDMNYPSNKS
# Experimental: (§2) Reactions containing 200 μM NAD^+, 100 μM JB12 peptide, and 100 mM phosphate buffer at pH 7.5, with varying concentrations of 2′-deoxy-2′-fluoro-nucleosides or nucleotides were initiated by addition of SirT1 enzyme to a concentration of 12.9 μM. Reactions were incubated for 30 mins at 37° C. and quenched by addition of trifluoroacetic acid to pH 2. After centrifugation to remove precipitates, reactions were injected on HPLC for activity analysis. Production of 2′- and 3′-AADPR were analyzed at 260 nm.
# as §2, with “SirT1 Activity Assay: Reactions containing” for “Reactions containing”, “concentrations of 2′-deoxy-2′-chloro-nucleosides were initiated” for “concentrations of 2′-deoxy-2′-fluoro-nucleosides or nucleotides were initiated”
# [5] = target: T2, SirT2 (Homo sapiens, UniProt Q8IXJ6); assay: SirT2 activity assay (HPLC of 2′- and 3′-AADPR); format: biochemical; details: at 1 mM; read-out: SirT2 % inhibited
# T2 sequence (Q8IXJ6 1-389): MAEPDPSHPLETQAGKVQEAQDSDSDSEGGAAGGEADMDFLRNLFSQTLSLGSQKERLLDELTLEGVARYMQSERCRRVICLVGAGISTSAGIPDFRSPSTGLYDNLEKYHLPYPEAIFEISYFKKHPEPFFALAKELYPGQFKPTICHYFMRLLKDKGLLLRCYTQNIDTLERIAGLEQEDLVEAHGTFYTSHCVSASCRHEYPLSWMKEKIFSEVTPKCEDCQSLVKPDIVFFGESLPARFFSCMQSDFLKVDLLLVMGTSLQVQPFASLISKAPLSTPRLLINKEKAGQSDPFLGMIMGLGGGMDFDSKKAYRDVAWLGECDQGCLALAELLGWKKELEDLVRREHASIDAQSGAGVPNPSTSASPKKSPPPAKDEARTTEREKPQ
# Experimental: as §2, with “containing 800” for “containing 200”, “NAD^+, 500” for “NAD^+, 100”, “μM H3” for “μM JB12”, “of SirT2” for “of SirT1”, “of 16.6” for “of 12.9”, “for 45” for “for 30”
# (§3) SirT2 Activity Assay: Reactions containing 800 μM NAD^+, 500 μM H3 peptide, and 100 mM phosphate buffer at pH 7.5, with varying concentrations of 2′-deoxy-2′-chloro-nucleosides were initiated by addition of SirT2 enzyme to a concentration of 16.6 μM. Reactions were incubated for 45 mins at 37° C. and quenched by addition of trifluoroacetic acid to pH 2. After centrifugation to remove precipitates, reactions were injected on HPLC for activity analysis. Production of 2′- and 3′-AADPR were analyzed at 260 nm.
# [6] = target: T3, SirT3 (Homo sapiens, UniProt Q9NTG7); assay: SirT3 activity assay (HPLC of 2′- and 3′-AADPR); format: biochemical
# T3 sequence (Q9NTG7 1-399): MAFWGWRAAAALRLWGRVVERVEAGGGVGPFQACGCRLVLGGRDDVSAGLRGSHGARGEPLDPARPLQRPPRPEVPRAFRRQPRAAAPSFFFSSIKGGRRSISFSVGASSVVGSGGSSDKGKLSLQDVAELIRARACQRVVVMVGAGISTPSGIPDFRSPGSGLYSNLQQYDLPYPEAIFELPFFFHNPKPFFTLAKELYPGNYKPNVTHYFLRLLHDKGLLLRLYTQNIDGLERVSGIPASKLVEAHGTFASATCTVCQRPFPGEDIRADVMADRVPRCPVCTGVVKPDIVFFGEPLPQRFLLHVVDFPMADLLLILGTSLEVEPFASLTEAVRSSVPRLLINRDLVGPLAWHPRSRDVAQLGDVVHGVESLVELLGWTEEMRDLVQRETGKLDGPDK
# Experimental: as §2, with “containing 800” for “containing 200”, “NAD^+, 500” for “NAD^+, 100”, “μM H3” for “μM JB12”, “of SirT3” for “of SirT1”, “of 13.9” for “of 12.9”, “for 2 hours” for “for 30 mins”
# as §3, with “SirT3” for “SirT2”, “13.9” for “16.6”, “2 hours” for “45 mins”
smiles,measurement,setting,value
O=c1[nH]cnc2c([C@@H]3N[C@H](CO)[C@@H](O)[C@H]3O)c[nH]c12 [Immucillin-H],effect of PNP inhibition on β-ara-Cl-NR toxicity,[1],largely incapable of preventing this toxicity
"NC(=O)c1ccc[n+]([C@@H]2O[C@H](COP(=O)([O-])OP(=O)(O)OC[C@H]3O[C@@H](n4cnc5c(N)ncnc54)[C@H](O)[C@@H]3O)[C@@H](O)C2(F)F)c1 [gem-diF-NAD, 2′-deoxy-2′,2′-difluoro-NAD^+]",100 μM absorbance,"[2]; 100 μM, 12 hours, MTT 1.5 hours, 570 nm",1.5765
same,100 μM relative viability,"[2]; 100 μM, 12 hours, control = 1",0.648
same,500 μM absorbance,"[2]; 500 μM, 12 hours, MTT 1.5 hours, 570 nm",1.1916
same,500 μM relative viability,"[2]; 500 μM, 12 hours, control = 1",0.49
same,EC50,"[2]; Mus musculus, N2a, 2′-deoxy-2′-fluoro-nucleosides and nucleotides",400 µM
same,100 μM absorbance,"[3]; HEK293, 100 μM, 12 hours, MTT 1.5 hours, 570 nm",1.797
same,100 μM relative viability,"[3]; HEK293, 100 μM, 12 hours, control = 1",0.7905
same,500 μM absorbance,"[3]; HEK293, 500 μM, 12 hours, MTT 1.5 hours, 570 nm",1.556
same,500 μM relative viability,"[3]; HEK293, 500 μM, 12 hours, control = 1",0.6844
same,EC50,"[3]; Homo sapiens, HEK293, HEK293, 2′-deoxy-2′-fluoro-nucleosides and nucleotides",1130 µM
same,Ki,[4],60 µM
"NC(=O)c1ccc[n+]([C@H]2O[C@H](CO)C(O)[C@@H]2Cl)c1 (stereo partly drawn) [α-ribo-Cl-NR, 1-(2-deoxy-2-chloro-D-ribofuranosyl)-nicotinamide]",inhibition at 1000 µM,[5],50%
same,inhibition at 1000 µM,"[6]; at 1 mM, read-out: SirT3 % inhibited",86%
"NC(=O)c1ccc[n+]([C@@H]2O[C@H](CO)C(O)[C@@H]2Cl)c1 (stereo partly drawn) [β-ribo-Cl-NR, 1-(2-deoxy-2-chloro-D-ribofuranosyl)-nicotinamide]",inhibition at 1000 µM,[5],43%
same,Ki,"[6]; 800 μM NAD+, 500 μM H3 peptide, pH 7.5, 2 hours at 37° C.",82 µM
